The results in this text go back to patent publication EP0970046B1, “N-HYDROXY-2-(ALKYL, ARYL, OR HETEROARYL SULFANYL, SULFINYL OR SULFONYL)-3-SUBSTITUTED ALKYL, ARYL OR HETEROARYLAMIDES AS MATRIX METALLOPROTEINASE INHIBITORS” (Wyeth Holdings Corporation, priority 1997, dated 1998).

Read-outs that look alike come from different tables or passages of the source.

For assay [1], the target named is MMP 13 (Homo sapiens, UniProt P45452). In words: MMP 13 inhibition (HTS; method not described). The format is biochemical. The settings on record: HTS; for inhibition at 0.2 µM: read-out: MMP 13 % inhibition at 0.2 µM (HTS); for inhibition at 0.036 µM: read-out: MMP 13 % inhibition at 36 nM (HTS); for inhibition at 0.036 µM / MMP 13 % inhibition at 36 nM (HTS): 36 nM.

The target in assay [2] is T1, TACE (Homo sapiens, UniProt P78536).
T1 construct: purchased Immunex
T1 sequence (P78536 215-824): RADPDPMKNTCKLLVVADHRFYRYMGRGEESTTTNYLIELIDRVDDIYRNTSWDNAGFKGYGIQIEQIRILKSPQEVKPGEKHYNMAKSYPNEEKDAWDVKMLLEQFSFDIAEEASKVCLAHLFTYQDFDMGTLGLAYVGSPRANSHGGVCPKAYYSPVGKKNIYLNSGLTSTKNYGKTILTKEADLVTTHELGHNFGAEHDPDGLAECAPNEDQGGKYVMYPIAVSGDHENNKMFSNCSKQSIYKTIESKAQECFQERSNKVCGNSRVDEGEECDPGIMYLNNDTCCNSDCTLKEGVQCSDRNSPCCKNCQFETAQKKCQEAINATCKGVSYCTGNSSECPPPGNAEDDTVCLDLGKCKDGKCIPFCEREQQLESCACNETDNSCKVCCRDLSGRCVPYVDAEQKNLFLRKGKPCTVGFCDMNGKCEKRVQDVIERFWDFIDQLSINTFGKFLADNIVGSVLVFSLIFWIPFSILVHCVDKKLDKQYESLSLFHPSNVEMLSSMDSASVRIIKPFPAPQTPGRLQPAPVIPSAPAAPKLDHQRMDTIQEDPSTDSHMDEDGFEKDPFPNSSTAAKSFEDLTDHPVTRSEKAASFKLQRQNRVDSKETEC
In words: Procedure for Measuring TACE Inhibition. It counts as biochemical. The following applies: 1 µM; for inhibition at 1 µM: read-out: TACE % inhibition at 1 µM. Here is the method: Using 96-well black microtiter plates, each well receives a solution composed of 10 µL TACE (Immunex, final concentration 1µg/mL), 70µL Tris buffer, pH 7.4 containing 10% glycerol (final concentration 10 mM), and 10 µL of test compound solution in DMSO (final concentration 1µM, DMSO concentration <1%) and incubated for 10 minutes at room temperature. The reaction is initiated by addition of a fluorescent peptidyl substrate (final concentration 100 µM) to each well and then shaking on a shaker for 5 sec. The reaction is read (excitation 340 nm, emission 420 nm) for 10 min. and the increase in fluorescence over time is plotted as a linear line. The slope of the line is calculated and represents the reaction rate. The linearity of the reaction rate is confirmed (r^2 >0.85). The mean (x±sem) of the control rate is calculated and compared for statistical significance (p<0.05) with drug-treated rates using Dunnett's multiple comparison test.

By inhibition is commonly meant the relative decrease from the control value, in per cent. On to `O=C(NO)C(Cc1ccccc1)[S+]([O-])c1ccc(O)cc1` (centres unmarked) [Example 126, 2-(4-Hydroxybenzenesulfinyl)-N-hydroxy-3-phenyl-propionamide], for which the inhibition at 0.2 µM in assay [1] was determined as 25%. Further, in assay [2] (Examples 110-168), the inhibition at 1 µM stood at 10.4%.
With `O=C(NO)C(COCc1ccccc1)SCc1ccccc1Cl` (centres unmarked) [Example 149, 3-Benzyloxy-N-hydroxy-2-(2-chloro-benzylsulfanyl)-propionamide], the inhibition at 0.2 µM in assay [1] was determined as 13%. Further, the inhibition at 1 µM in assay [2] (Examples 110-168) stood at 4.41%.
On to `CC(C)C(C(=O)NO)S(=O)(=O)c1ccc2ccccc2c1` (centres unmarked) [Example 116, N-Hydroxy-3-methyl-2-(naphthalen-2-ylsulfonyl)-butyramide], for which the inhibition at 0.2 µM in assay [1] is 0%. Further, the inhibition at 1 µM in assay [2] (Examples 110-168) is 9.1%.
Regarding `CC(C)CCSC(C)C(=O)NO` (centres unmarked) [Example 112, N-Hydroxy-2-(3-methyl-butane-1-sulfanyl)-propionamide], the “MMP 13 % inhibition at 0.2 µM (HTS)” value in assay [1] is recorded as 50%. For the same compound, in assay [2] (Examples 110-168), the “TACE % inhibition at 1 µM” value was 33.7%.
For `O=C(CCC(Sc1ccccc1C(F)(F)F)C(=O)NO)NO` (centres unmarked) [Example 137, 4-Hydroxycarbamoyl-4-(2-trifluoromethyl-benzenesulfanyl)-butyric acid hydroxyamide] the same measures were 83% and 13.35%.
For `CCCCCCC(C(=O)NO)S(=O)(=O)c1nc(-c2ccccc2)cs1` (centres unmarked) [Example 182, 2-(4-Phenyl-thiazole-2-sulfonyl)-octanoic acid hydroxyamide], in assay [1], the inhibition at 0.036 µM is -9%. For the same compound, in assay [2] (Examples 169-240), the inhibition at 1 µM stood at 28.6%.
`O=C(NO)C(Cc1ccccc1)S(=O)(=O)c1ccc(O)cc1` (centres unmarked) [Example 127, 2-(4-Hydroxybenzenesulfonyl)-N-hydroxy-3-phenyl-propionamide]: the inhibition at 0.2 µM in assay [1] stood at 47%. The inhibition at 1 µM in assay [2] (Examples 110-168) worked out at 29.2%.
Regarding `CC(C)CCS(=O)(=O)C(C)C(=O)NO` (centres unmarked) [Example 113, N-Hydroxy-2-(3-methyl-butane-1-sulfonyl)-propionamide], the inhibition at 0.2 µM in assay [1] is 0%. The inhibition at 1 µM in assay [2] (Examples 110-168) stood at 13.1%.
For `CCCCCCC(SCC1NC(=O)NC1=O)C(=O)NO` (centres unmarked) [Example 187, 2-(2,5-Dioxo-imidazolidin-4-ylmethylsulfanyl)-octanoic acid hydroxyamide], the inhibition at 0.036 µM in assay [1] is -14%. In assay [2] (Examples 169-240), the inhibition at 1 µM stood at 85.5%.
On to `CCCCCCC(C(=O)NO)S(=O)(=O)c1ccc(OC)c(OC)c1` (centres unmarked) [Example 167, 2-(3,4-Dimethoxybenzenesulfonyl)-octanoic acid hydroxyamide], for which the inhibition at 0.2 µM in assay [1] was 27%. Also, in assay [2] (Examples 110-168), the inhibition at 1 µM was 8.96%.
On the same counts, the results for `CC(=O)Nc1ccc(S(=O)(=O)C(Cc2ccccc2)C(=O)NO)cc1` (centres unmarked) [Example 130, 2-(4-Acetylamino-benzenesulfonyl)-N-hydroxy-3-phenyl-propionamide] are 28% and 27.9%.
Take `CCCCCCC(Sc1ccc(NC)cc1)C(=O)NO` (centres unmarked) [Example 229, 2-(4-Methylamino-phenylsulfanyl)-octanoic acid hydroxyamide]: the inhibition at 0.036 µM in assay [1] was 29%. The inhibition at 1 µM in assay [2] (Examples 169-240) was 34.4%.
In the case of `O=C(CCC(C(=O)NO)S(=O)(=O)c1ccc(Br)cc1)NO` (centres unmarked) [Example 136, 4-Hydroxycarbamoyl-4-(4-bromo-benzenesulfonyl)-butyric acid hydroxyamide], in assay [1], the inhibition at 0.2 µM amounted to 89%. Also, in assay [2] (Examples 110-168), the inhibition at 1 µM is 42.7%.
In the case of `CCCCCCC(Sc1nc(-c2ccccc2)cs1)C(=O)NO` (centres unmarked) [Example 172, 2-(4-Phenyl-thiazole-2-sulfanyl)-octanoic acid hydroxyamide], in assay [1], the “MMP 13 % inhibition at 36 nM (HTS)” value was 34%. For the same compound, the “TACE % inhibition at 1 µM” value in assay [2] (Examples 169-240) came to 29.4%.
For the compound `CCCCCCC(C(=O)NO)[S+]([O-])c1ccc(OC)c(OC)c1` (centres unmarked) [Example 166, 2-(3,4-Dimethoxybenzenesulfinyl)-octanoic acid hydroxyamide], in assay [1], the inhibition at 0.2 µM came out at 9%. Further, in assay [2] (Examples 110-168), the inhibition at 1 µM came to 4.16%.
For the compound `COc1ccc(S(=O)(=O)C(C)C(=O)NO)cc1` (centres unmarked) [Example 110, N-Hydroxy-2-(4-methoxy-benzenesulfonyl)-propionamide], the inhibition at 0.2 µM in assay [1] is 75%. Also, the inhibition at 1 µM in assay [2] (Examples 110-168) is 17.6%.
“5-Chloro-1,3-dimethyl-1H-pyrazole-4-sulfonic acid 4-(1-hydroxycarbamoyl-heptylsulfinyl)-hydroxyamide [Example 235]”: in assay [1], the “MMP 13 % inhibition at 36 nM (HTS)” value was found to be 59%. Also, the “TACE % inhibition at 1 µM” value in assay [2] (Examples 169-240) is listed as 48.3%.
Take `CCC(SCC(=O)OC)C(=O)NO` (centres unmarked) [Example 119, (1-Hydroxycarbamoyl-propane-1-sulfanyl)-acetic acid methyl ester]: in assay [1], the “MMP 13 % inhibition at 0.2 µM (HTS)” value worked out at 0%. Also, in assay [2] (Examples 110-168), the “TACE % inhibition at 1 µM” value is recorded as 7.8%.
Consider `O=C(NO)C(COCc1ccccc1)S(=O)(=O)Cc1ccccc1Cl` (centres unmarked) [Example 151, 3-Benzyloxy-N-hydroxy-2-(2-chloro-benzylsulfonyl)-propionamide], for which the inhibition at 0.2 µM in assay [1] stood at 6%. Further, in assay [2] (Examples 110-168), the inhibition at 1 µM is 5.93%.
In the case of `CCCCCCC(C(=O)NO)S(=O)(=O)CC(=O)Nc1ccc2ccccc2c1` (centres unmarked) [Example 197, 2-(Naphthalen-2-ylcarbamoylmethanesulfonyl)-octanoic acid hydroxyamide], the inhibition at 0.036 µM in assay [1] is -33%. The inhibition at 1 µM in assay [2] (Examples 169-240) was determined as 17.8%.
With “Benzo[1,2,5]thiadiazole-4-sulfonic acid 4-(1-hydroxycarbamoyl-heptylsulfonyl)-hydroxyamide [Example 240]”, the “MMP 13 % inhibition at 36 nM (HTS)” value in assay [1] worked out at 48%. In assay [2] (Examples 169-240), the “TACE % inhibition at 1 µM” value is 40.3%.
On to `CC(C)C(C(=O)NO)[S+]([O-])c1ccc2ccccc2c1` (centres unmarked) [Example 115, N-Hydroxy-3-methyl-2-(naphthalen-2-ylsulfinyl)-butyramide], for which the inhibition at 0.2 µM in assay [1] worked out at 0%. Further, in assay [2] (Examples 110-168), the inhibition at 1 µM came to 0%.
With `CCCCCCC(C(=O)NO)[S+]([O-])c1cccc(OC)c1` (centres unmarked) [Example 163, 2-(3-Methoxybenzenesulfinyl)-octanoic acid hydroxyamide], the inhibition at 0.2 µM in assay [1] was 84%. Further, the inhibition at 1 µM in assay [2] (Examples 110-168) came out at 9.52%.
Consider `CCCCCCC(C(=O)NO)S(=O)(=O)c1ccc(CCC(=O)NO)cc1` (centres unmarked) [Example 193, 3-[4-(1-Hydroxycarbamoyl-heptylsulfonyl)-phenyl]-propionic acid hydroxy amide], for which the inhibition at 0.036 µM in assay [1] is -32%. Besides, in assay [2] (Examples 169-240), the inhibition at 1 µM was found to be 14.9%.
On to `CCCCCCC(C(=O)NO)S(=O)(=O)c1ncc[nH]1` (centres unmarked) [Example 194, 2-(1H-Imidazole-2-sulfonyl)-octanoic acid hydroxyamide], for which, in assay [1], the inhibition at 0.036 µM is -17%. Further, the inhibition at 1 µM in assay [2] (Examples 169-240) was determined as 5.4%.
